In patent publication EP4667464A1 (Cyrus Therapeutics Inc., priority 2023, dated 2024):
pIC50: −log10 of the molar value. Like-named read-outs stand apart in the source and are kept apart here.

Legend:
SOS1 = biological target: T1, SOS1 (Homo sapiens, UniProt Q07889); test: SOS-catalyzed nucleotide exchange assay (HTRF, SOS1-mediated GTP loading of KRAS G12D); format: biochemical
T1 construct: HIS-SOS1cat (160 nM; Cytoskeleton, US); His (N); purchased Cytoskeleton
T1 sequence (Q07889 564-1049 limits assumed): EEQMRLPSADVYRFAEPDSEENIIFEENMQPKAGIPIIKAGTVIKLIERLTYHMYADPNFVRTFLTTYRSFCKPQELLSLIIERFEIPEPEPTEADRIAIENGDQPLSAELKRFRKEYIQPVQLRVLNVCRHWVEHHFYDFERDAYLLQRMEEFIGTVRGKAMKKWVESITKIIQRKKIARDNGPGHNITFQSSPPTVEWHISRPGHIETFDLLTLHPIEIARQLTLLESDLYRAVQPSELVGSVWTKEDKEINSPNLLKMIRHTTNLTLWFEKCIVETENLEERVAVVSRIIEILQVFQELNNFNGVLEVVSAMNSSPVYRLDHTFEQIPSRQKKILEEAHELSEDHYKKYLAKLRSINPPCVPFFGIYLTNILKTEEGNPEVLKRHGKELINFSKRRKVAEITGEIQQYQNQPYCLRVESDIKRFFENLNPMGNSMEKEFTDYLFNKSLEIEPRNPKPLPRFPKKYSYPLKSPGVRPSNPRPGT

KRAS G12C::SOS1 = biological target: T2, KRAS G12C::SOS1 (Homo sapiens, UniProt Q07889); test: KRAS G12C::SOS1 protein-protein interaction (PPI) inhibition assay (HTRF); format: binding
T2 construct: purchased CISBIO 64KRASG12PEH
T2 sequence (Q07889 1-1333): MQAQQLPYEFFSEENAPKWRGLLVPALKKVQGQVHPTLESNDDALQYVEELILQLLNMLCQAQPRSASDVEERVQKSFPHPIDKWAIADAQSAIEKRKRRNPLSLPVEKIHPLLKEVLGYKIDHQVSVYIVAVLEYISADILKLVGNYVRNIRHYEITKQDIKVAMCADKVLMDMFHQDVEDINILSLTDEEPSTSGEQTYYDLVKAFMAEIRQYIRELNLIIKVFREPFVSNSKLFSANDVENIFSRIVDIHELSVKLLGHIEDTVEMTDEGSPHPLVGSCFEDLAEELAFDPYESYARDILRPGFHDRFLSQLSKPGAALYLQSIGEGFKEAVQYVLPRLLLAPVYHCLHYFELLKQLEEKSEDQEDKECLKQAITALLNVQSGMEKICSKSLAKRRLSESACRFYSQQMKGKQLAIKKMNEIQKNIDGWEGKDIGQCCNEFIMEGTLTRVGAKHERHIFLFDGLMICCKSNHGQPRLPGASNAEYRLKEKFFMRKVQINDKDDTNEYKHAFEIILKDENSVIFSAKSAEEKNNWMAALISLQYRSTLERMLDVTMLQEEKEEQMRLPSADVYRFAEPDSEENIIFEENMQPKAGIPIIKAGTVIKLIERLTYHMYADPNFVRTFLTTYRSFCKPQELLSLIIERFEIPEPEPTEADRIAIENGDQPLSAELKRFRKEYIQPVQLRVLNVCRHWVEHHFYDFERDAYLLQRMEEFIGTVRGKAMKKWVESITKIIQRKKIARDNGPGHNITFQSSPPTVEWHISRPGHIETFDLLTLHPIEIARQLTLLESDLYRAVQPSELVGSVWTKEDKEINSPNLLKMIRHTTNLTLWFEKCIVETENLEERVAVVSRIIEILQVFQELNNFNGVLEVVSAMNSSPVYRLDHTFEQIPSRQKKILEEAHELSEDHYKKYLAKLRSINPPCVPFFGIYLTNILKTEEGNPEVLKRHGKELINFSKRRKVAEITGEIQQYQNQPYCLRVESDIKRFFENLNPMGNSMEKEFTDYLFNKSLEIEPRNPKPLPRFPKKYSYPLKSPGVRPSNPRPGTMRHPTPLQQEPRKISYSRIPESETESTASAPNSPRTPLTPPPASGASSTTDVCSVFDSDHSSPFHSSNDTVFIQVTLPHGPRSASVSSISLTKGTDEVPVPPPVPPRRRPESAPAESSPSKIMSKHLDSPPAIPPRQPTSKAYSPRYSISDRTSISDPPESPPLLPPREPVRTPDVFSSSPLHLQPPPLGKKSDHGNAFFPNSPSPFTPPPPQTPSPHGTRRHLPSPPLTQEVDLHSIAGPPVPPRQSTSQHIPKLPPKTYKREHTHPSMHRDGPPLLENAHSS
Procedure, shortened: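 Compounds, at eight 3-fold dilutions from 3 µM, were mixed with GTP-loaded Tag1-KRAS G12C, Tag2-SOS1 and a terbium-cryptate donor plus XL665 acceptor antibody pair. After 2 h at room temperature, time-resolved FRET reported the KRAS–SOS1 interaction.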

[1] = system: lung cancer cell line NCI-H358 having the KRAS G12C variant; test: Cancer cell growth inhibition, 3D spheroids (CellTiter-Glo 3D); format: cell-based; settings: Homo sapiens, NCI-H358, 120 h, read-out: H358 cell viability
Protocol: Thereafter, the plate with the cells cultured was adapted to room temperature for 10 minutes, and then 50 µL of CellTiter-Glo® 3D Cell Viability Assay (PROMEGA, G9683) solution was dispensed, and reacted on a horizontal stirrer at a speed of 300 RPM for 30 minutes to induce the cell lysis. […] Thereafter, based on the measured values, the degree of cell growth in the well treated with each compound was calculated when the final cell density value of the well not treated with the test substance was set to 100%.

[2] = GST-KRAS G12D, HIS-SOS1cat, compound 128 pM to 10 µM, read-out: SOS-catalyzed nucleotide exchange assay
[3] = 8 concentrations from 3 µM, three replicates, read-out: KRAS G12C::SOS1 PPI
[4] = 3D spheroids, 0.002-10 µM, 5 days

Row | SMILES | pIC50 (SOS1; [2]) | pIC50 (KRAS G12C::SOS1; [3]) | pIC50 [1, 4] | pIC50 (SOS1) | pIC50 (KRAS G12C::SOS1) | pIC50 [1]
1 | C[C@@H](NC(=O)c1ccc(=O)n(-c2cncc(-c3cnnn3C)c2)n1)c1cccc(C(F)(F)CO)c1F [Example 1, N-[(1R)-1-[3-(1,1-difluoro-2-hydroxy-ethyl)-2-fluoro-phenyl]ethyl]-1-[5-(3-methyltriazol-4-yl)-3-pyridyl]-6-oxo-pyridazine-3-carboxamide] |  |  |  | > 7.30 | > 7.30 | > 6.00
2 | C[C@@H](NC(=O)c1ccc(=O)n(-c2cncc(-c3cnnn3C)c2)n1)c1cccc(C(F)F)c1F [Example 1-1, N-[(1R)-1-[3-(difluoromethyl)-2-fluoro-phenyl]ethyl]-1-[5-(3-methyltriazol-4-yl)-3-pyridyl]-6-oxo-pyridazine-3-carboxamide] | 6.82 to 7.30 | > 7.30 | > 6.00 |  |  | 
3 | [2H]C([2H])([2H])n1nncc1-c1cncc(-n2nc(C(=O)N[C@H](C)c3cc(N)cc(C(F)F)c3)ccc2=O)c1 [Example 1-4, N-[(1R)-1-[3-amino-5-(difluoromethyl)phenyl]ethyl]-6-oxo-1-[5-[3-(trideuteriomethyl)triazol-4-yl]-3-pyridyl]pyridazine-3-carboxamide] | 6.82 to 7.30 | > 7.30 | < 5.52 |  |  | 
4 | [2H]C([2H])([2H])n1nncc1-c1cncc(-n2nc(C(=O)N[C@H](C)c3cccc(C(F)F)c3F)ccc2=O)c1 [Example 1-6, N-[(1R)-1-[3-(difluoromethyl)-2-fluoro-phenyl]ethyl]-6-oxo-1-[5-[3-(trideuteriomethyl)triazol-4-yl]-3-pyridyl]pyridazine-3-carboxamide] | 6.82 to 7.30 | > 7.30 | < 5.52 |  |  | 
5 | C[C@@H](NC(=O)c1ccc(=O)n(-c2cncc(-c3cnnn3C)c2)n1)c1cc(N)cc(C(F)(F)F)c1 [Example 1-9, N-[(1R)-1-[3-amino-5-(trifluoromethyl)phenyl]ethyl]-1-[5-(3-methyltriazol-4-yl)-3-pyridyl]-6-oxo-pyridazine-3-carboxamide] | > 7.30 | > 7.30 | > 6.00 |  |  | 
6 | Cc1cc(C(=O)N[C@H](C)c2cccc(C(F)F)c2F)nn(-c2cncc(-c3cnnn3C)c2)c1=O [Example 1-15, N-[(1R)-1-[3-(difluoromethyl)-2-fluoro-phenyl]ethyl]-5-methyl-1-[5-(3-methyltriazol-4-yl)-3-pyridyl]-6-oxo-pyridazine-3-carboxamide] | > 7.30 | > 7.30 | > 6.00 |  |  | 
7 | C[C@@H](NC(=O)c1ccc(=O)n(-c2cncc(-c3cnnn3C)c2)n1)c1cccc(C2(C)CC2)c1F [Example 1-33, N-[(1R)-1-[2-fluoro-3-(1-methylcyclopropyl)phenyl]ethyl]-1-[5-(3-methyltriazol-4-yl)-3-pyridyl]-6-oxo-pyridazine-3-carboxamide] |  | < 6.82 | < 5.52 |  |  | 
8 | [2H]C([2H])([2H])[C@@]([2H])(NC(=O)c1ccc(=O)n(-c2cncc(-c3cnnn3C)c2)n1)c1cccc(C(F)(F)F)c1F [Example 22, (R)-N-(1-(2-fluoro-3-(trifluoromethyl)phenyl)ethyl-1,2,2,2-tetradeuterio)-1-(5-(1-methyl-1H-1,2,3-triazol-5-yl)pyridin-3-yl)-6-oxo-1,6-dihydropyridazine-3-carboxamide] |  |  | > 6.00 |  |  | 
9 | C[C@@H](NC(=O)c1ccc(=O)n(-c2cncc(-c3cnnn3[C@H]3CC3(F)F)c2)n1)c1cccc(C(F)(F)F)c1F [Example 23, 1-[5-[3-[(1S)-2,2-difluorocyclopropyl]triazol-4-yl]-3-pyridyl]-N-[(1R)-1-[2-fluoro-3-(trifluoromethyl)phenyl]ethyl]-6-oxo-pyridazine-3-carboxamide] |  |  |  | 6.82 to 7.30 | 6.82 to 7.30 | 
10 | C[C@@H](NC(=O)c1ccc(=O)n(-c2cncc(-c3cnnn3[C@@H]3CC3(F)F)c2)n1)c1cccc(C(F)(F)F)c1F [Example 24, 1-[5-[3-[(1R)-2,2-difluorocyclopropyl]triazol-4-yl]-3-pyridyl]-N-[(1R)-1-[2-fluoro-3-(trifluoromethyl)phenyl]ethyl]-6-oxo-pyridazine-3-carboxamide] |  |  |  | 6.82 to 7.30 | < 6.82 | 

Now from value to molecule, other results behind:

Row | pIC50 (SOS1; [2]) | pIC50 (KRAS G12C::SOS1; [3]) | pIC50 [1, 4] | SMILES | pIC50 (SOS1) | pIC50 (KRAS G12C::SOS1) | pIC50 [1]
11 |  |  | > 6.00 | [2H]C([2H])([2H])n1nncc1-c1cncc(-n2nc(C(=O)N[C@H](C)c3cccc(C(F)(F)F)c3F)ccc2=O)c1 [Example 1-5, N-[(1R)-1-[2-fluoro-3-(trifluoromethyl)phenyl]ethyl]-6-oxo-1-[5-[3-(trideuteriomethyl)triazol-4-yl]-3-pyridyl]pyridazine-3-carboxamide] |  |  | 
12 | > 7.30 | > 7.30 | > 6.00 | [2H]C([2H])([2H])n1nncc1-c1cncc(-n2nc(C(=O)N[C@H](C)c3cccc(C(F)(F)CO)c3F)ccc2=O)c1 [Example 1-7, N-[(1R)-1-[3-(1,1-difluoro-2-hydroxy-ethyl)-2-fluoro-phenyl]ethyl]-6-oxo-1-[5-[3-(trideuteriomethyl)triazol-4-yl]-3-pyridyl]pyridazine-3-carboxamide] |  |  | 
13 | 6.82 to 7.30 | 6.82 to 7.30 | > 6.00 | C[C@@H](NC(=O)c1ccc(=O)n(-c2cncc(-c3cnnn3C)c2)n1)c1cccc(C(C)(F)F)c1F [Example 1-11, N-[(1R)-1-[3-(1,1-difluoroethyl)-2-fluoro-phenyl]ethyl]-1-[5-(3-methyltriazol-4-yl)-3-pyridyl]-6-oxo-pyridazine-3-carboxamide] |  |  | 
14 | > 7.30 | 6.82 to 7.30 | > 6.00 | CCn1nncc1-c1cncc(-n2nc(C(=O)N[C@H](C)c3cccc(C(F)(F)F)c3F)ccc2=O)c1 [Example 1-12, N-[(1R)-1-[2-fluoro-3-(trifluoromethyl)phenyl]ethyl]-1-[5-(3-ethyltriazol-4-yl)-3-pyridyl]-6-oxo-pyridazine-3-carboxamide] |  |  | 
15 | > 7.30 | > 7.30 |  | COC(=O)N1CC(n2nncc2-c2cncc(-n3nc(C(=O)N[C@H](C)c4cccc(C(F)(F)F)c4F)ccc3=O)c2)C1 [Example 20-11, methyl (R)-3-(5-(5-(3-((1-(2-fluoro-3-(trifluoromethyl)phenyl)ethyl)carbamoyl)-6-oxopyridazin-1(6H)-yl)pyridin-3-yl)-1H-1,2,3-triazol-1-yl)azetidine-1-carboxylate] |  |  | 
16 | > 7.30 | > 7.30 |  | C[C@@H](NC(=O)c1ccc(=O)n(-c2cncc(-c3cnnn3C3CN(S(C)(=O)=O)C3)c2)n1)c1cccc(C(F)(F)F)c1F [Example 20-12, (R)-N-(1-(2-fluoro-3-(trifluoromethyl)phenyl)ethyl)-1-(5-(1-(1-(methylsulfonyl)azetidin-3-yl)-1H-1,2,3-triazol-5-yl)pyridin-3-yl)-6-oxo-1,6-dihydropyridazine-3-carboxamide] |  |  | 
